Where two headings read alike, the source gives them in different places.
Tests used:
[1] = target: T1, recombinant human Lp-PLA2 (Homo sapiens, UniProt Q13093); test: Recombinant human Lp-PLA2 assay (rhLp-PLA2, PED6 assay); assay type: biochemical
T1 sequence (Q13093 22-441): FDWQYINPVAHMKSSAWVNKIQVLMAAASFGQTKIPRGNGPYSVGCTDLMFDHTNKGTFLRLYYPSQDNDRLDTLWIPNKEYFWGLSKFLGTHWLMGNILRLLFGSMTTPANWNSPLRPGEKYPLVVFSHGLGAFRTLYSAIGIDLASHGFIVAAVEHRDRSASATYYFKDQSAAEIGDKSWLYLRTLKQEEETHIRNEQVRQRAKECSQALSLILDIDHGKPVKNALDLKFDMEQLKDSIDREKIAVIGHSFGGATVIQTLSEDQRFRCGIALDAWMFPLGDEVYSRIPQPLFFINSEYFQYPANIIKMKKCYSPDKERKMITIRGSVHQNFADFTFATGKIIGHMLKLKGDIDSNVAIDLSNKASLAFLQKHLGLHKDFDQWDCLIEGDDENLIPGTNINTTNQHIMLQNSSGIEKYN
Excerpt: (1) Recombinant Human Lp-PLA2 Assay (rhLp-PLA2) (Also Referred to as “PED6” Assay)
N-((6-(2,4-dinitrophenyl)amino)-hexanoyl)-2-(4,4-difluoro-5,7-dimethyl-4-bora-3a,4a-diaza-s-indacene-3-pentanoyl)-1-hexadecanoyl-sn-glycero-3-phosphoethanolamine, triethylammonium salt (PED6) is a commercially available fluorescently-labeled phospholipid, which is commercially available from Invitrogene and Molecular Probes. There is a quenching […] and a Bodipy fluorescein (FL) group in the sn2 position. Upon cleavage with Lp-PLA2, the Bodipy FL group is liberated and then may result in an increase in fluorescence. Inhibitors of Lp-PLA2 therefore prevent this cleavage and no fluorescent increase is observed.
The PED6 assay was run as an unquenched 10 μL assay. The source plate containing the compounds to be tested was prepared by making 1:3 (by volume) serial dilution of the compounds within DMSO on 384-well microplate. Then, 0.01 μL of the compounds on compound source plate were transferred into 384 well Greiner 784076 (black) plates using ECHO liquid dispenser. 5 μL of recombinant human Lp-PLA2 enzyme (4 nM (or […]) rhLp-PLA2 in assay buffer of 50 mM HEPES, pH 7.4, 150 mM NaCl, 1 mM CHAPS) was added to each well of the plate. Plates were centrifuged for 10 sec at 500 rpm. After 30 minutes preincubation, 5 μL of substrate ([…] PED6 [from 5 mM DMSO stock] in assay buffer of 50 mM HEPES, pH 7.4, 150 mM NaCl, 1 mM CHAPS) was added to 384 well Greiner 784076 (black) plates. Plates were centrifuged for 10 sec at 500 rpm. The plate was covered to protect it from light and incubated for 20 min at room temperature. The plates were read for fluorescence intensity at ex: 480/em: 540 using ViewLux microplate imager for Envision spectrofluoroimeters pIC50 data, curve and QC analysis was conducted by using XL fit module in Excel.

[2] = target: T2, Lp-PLA2 in human plasma (Homo sapiens, UniProt Q13093); test: Lp-PLA2 human plasma assay (Thio-PAF assay); assay type: biochemical; conditions: pooled human plasma; lower bounds; read-out: pIC50 values in the thio-PAF assay (converted)
T2 construct: from tissue; host or cells: pooled human plasma
T2 sequence (Q13093 22-441): T1 sequence (Q13093 22-441)
Excerpt: (3) Lipoprotein-Associated Phospholipase A2 (Lp-PLA2) Human Plasma Assay (Also Referred to as “Thio-PAF assay”)
The human plasma assay utilizes a thioester analog of PAF (phosphatidylcholine), where hydrolysis yields to the formation of a phospholipid containing a free thiol group. The amount of thiol is quantitated continuously by reacting with CPM (7-diethylamino-3-(4′-maleimidylphenyl)-4-methylcoumarin), a maleimide which increases in fluoresence after Michael addition of thiols. This assay may detect the activity of Lp-PLA2 in human plasma, as determined by specific inhibition by Lp-PLA2 inhibitors.
The thio-PAF assay was run as a quenched 15 μL assay. Compounds source plate was prepared by making 1:3 (by volume) serial dilution of the compounds into pure DMSO on 384-well microplate. 0.01 μL of compounds on compound source plate were transferred to 384 well Greiner 784076 (black) low-volume plates by ECHO liquid dispenser. 8 μL pooled human plasma, which was previously aliquoted and frozen, was added. Plates were centrifuged for 10 sec at 500 rpm. After 30 minutes preincubation, 2 μL of substrate solution comprising 2.5 mM 2-thio-PAF [from ethanol stock], 32 μM CPM [from a DMSO stock] and 3.2 mM NEM (N-ethylmaleimide) [made fresh daily in DMSO] in assay buffer of 50 mM HEPES, pH 7.4, 150 mM NaCl, 1 mM CHAPS was added to 384 well Greiner 784076 (black) low-volume plates by BRAVO liquid handling station. After 2 mins, reaction was quenched with 5 μL of 5% aqueous trifluoroacetic acid (TFA). Plates were covered to protect from light and incubated for 40 min at room temperature. Plates were read at ex: 380/em: 485 using-Envision microplate reader. PIC50 data, curve and QC analysis were conducted by using XLFit module in Excel.

[3] = lower bounds, read-out: pIC50 values in the PED6 assay (converted)
[4] = read-out: rhLp-PLA2 (PED6 assay) (pIC50) (converted)

Row | SMILES | IC50 [1, 3] | IC50 [2] | IC50 [1, 4]
1 | C[C@H]1Cn2c(cc(OCc3ccc(F)c(F)c3)nc2=O)N1C [Example E7, (S)-7-((3,4-difluorobenzyl)oxy)-1,2-dimethyl-2,3-dihydroimidazo[1,2-c]pyrimidin-5(1H)-one] | ≤ 10 nM | ≤ 100 nM | –
2 | CN1c2cc(OCc3ccc(Oc4ccc(Cl)nc4)c(F)c3)nc(=O)n2CC1(C)C [Example E12, 7-((4-((6-chloropyridin-3-yl)oxy)-3-fluorobenzyl)oxy)-1,2,2-trimethyl-2,3-dihydroimidazo[1,2-c]pyrimidin-5(1H)-one] | ≤ 1 nM | ≤ 100 nM | 0.0316 nM
3 | CN1c2cc(OCc3cc(F)c(Oc4ccc(Cl)nc4)c(F)c3)nc(=O)n2CC1(C)C [Example E13, 7-((4-((6-chloropyridin-3-yl)oxy)-3,5-difluorobenzyl)oxy)-1,2,2-trimethyl-2,3-dihydroimidazo[1,2-c]pyrimidin-5(1H)-one] | ≤ 1 nM | ≤ 100 nM | 0.0501 nM
4 | CC1Cn2c(cc(OCc3ccc(Oc4cccc(C(F)(F)F)c4)c(C#N)c3)nc2=O)N1C (stereo not shown) [Example E71, 5-(((1,2-dimethyl-5-oxo-1,2,3,5-tetrahydroimidazo[1,2-c]pyrimidin-7-yl)oxy)methyl)-2-(3-(trifluoromethyl)phenoxy)benzonitrile] | ≤ 1 nM | ≤ 100 nM | –
5 | CC1(C)Cn2c(cc(OCc3ccc(Oc4ccnc(C(F)(F)F)c4)c(F)c3)nc2=O)N1 [Example E38, 7-((3-fluoro-4-((2-(trifluoromethyl)pyridin-4-yl)oxy)benzyl)oxy)-2,2-dimethyl-2,3-dihydroimidazo[1,2-c]pyrimidin-5(1H)-one] | ≤ 1 nM | ≤ 100 nM | –
6 | CN1c2cc(OCc3ccc(F)c(Cl)c3)nc(=O)n2CC1(C)C [Example E11, 7-((3-chloro-4-fluorobenzyl)oxy)-1,2,2-trimethyl-2,3-dihydroimidazo[1,2-c]pyrimidin-5(1H)-one] | ≤ 1 nM | ≤ 100 nM | –
7 | C[C@H]1Cn2c(cc(OCc3cc(F)c(Oc4ccnc(C(F)(F)F)c4)c(F)c3)nc2=O)N1C [Example E58, (S)-7-((3,5-difluoro-4-((2-(trifluoromethyl)pyridin-4-yl)oxy)benzyl)oxy)-1,2-dimethyl-2,3-dihydroimidazo[1,2-c]pyrimidin-5(1H)-one] | ≤ 1 nM | ≤ 100 nM | 0.0631 nM
8 | C[C@H]1Cn2c(cc(OCc3ccc(Oc4ccnc(C(F)(F)F)c4)c(F)c3)nc2=O)N1 [Example E78, (S)-7-((3-fluoro-4-((2-(trifluoromethyl)pyridin-4-yl)oxy)benzyl)oxy)-2-methyl-2,3-dihydroimidazo[1,2-c]pyrimidin-5(1H)-one] | ≤ 1 nM | ≤ 100 nM | –
9 | C[C@H]1Cn2c(cc(OCc3ccc(Oc4cnc(C(F)(F)F)nc4)c(F)c3)nc2=O)N1C [Example E40, (S)-7-((3-fluoro-4-((2-(trifluoromethyl)pyrimidin-5-yl)oxy)benzyl)oxy)-1,2-dimethyl 2,3-dihydroimidazo[1,2-c]pyrimidin-5(1H)-one] | ≤ 10 nM | ≤ 100 nM | –
10 | CC1Cn2c(cc(OCc3ccc(F)c(F)c3)nc2=O)N1C (stereo not shown) [Example E2, 7-((3,4-difluorobenzyl)oxy)-1,2-dimethyl-2,3-dihydroimidazo[1,2-c]pyrimidin-5(1H)-one] | ≤ 10 nM | ≤ 100 nM | –
11 | CN1c2cc(OCc3ccc(Oc4cnc(C(F)(F)F)nc4)c(F)c3)nc(=O)n2CC1(C)C [Example E43, 7-((3-fluoro-4-((2-(trifluoromethyl)pyrimidin-5-yl)oxy)benzyl)oxy)-1,2,2-trimethyl-2,3-dihydroimidazo[1,2-c]pyrimidin-5(1H)-one] | ≤ 1 nM | ≤ 100 nM | 0.0501 nM
12 | CN1c2cc(OCc3cc(F)c(Oc4cncc(C(F)(F)F)c4)c(F)c3)nc(=O)n2CC1(C)C [Example E61, 7-((3,5-difluoro-4-((5-(trifluoromethyl)pyridin-3-yl)oxy)benzyl)oxy)-1,2,2-trimethyl-2,3-dihydroimidazo[1,2-c]pyrimidin-5(1H)-one] | ≤ 1 nM | ≤ 100 nM | 0.126 nM
13 | CC1(C)Cn2c(cc(OCc3ccc(Oc4cncc(C(F)(F)F)c4)c(F)c3)nc2=O)N1 [Example E41, 7-((3-fluoro-4-((5-(trifluoromethyl)pyridin-3-yl)oxy)benzyl)oxy)-2,2-dimethyl-2,3-dihydroimidazo[1,2-c]pyrimidin-5(1H)-one] | ≤ 1 nM | ≤ 100 nM | –

Further lines, results first:

Row | IC50 [1, 3] | IC50 [2] | IC50 [1, 4] | SMILES
14 | ≤ 1 nM | ≤ 100 nM | – | CC1(C)Cn2c(cc(OCc3cc(F)c(Oc4cncc(Cl)c4)c(F)c3)nc2=O)N1 [Example E128, 7-((4-((5-chloropyridin-3-yl)oxy)-3,5-difluorobenzyl)oxy)-2,2-dimethyl-2,3-dihydroimidazo[1,2-c]pyrimidin-5(1H)-one]
15 | ≤ 1 nM | ≤ 100 nM | – | C[C@H]1Cn2c(cc(OCc3ccc(Oc4ccc(F)c(F)c4)c(C#N)c3)nc2=O)N1C [Example E88, (S)-2-(3,4-difluorophenoxy)-5-(((1,2-dimethyl-5-oxo-1,2,3,5-tetrahydroimidazo[1,2-c]pyrimidin-7-yl)oxy)methyl)benzonitrile]
16 | ≤ 10 nM | ≤ 100 nM | – | [2H]C([2H])([2H])N1c2cc(OCc3cccc(F)c3F)nc(=O)n2CC1(C)C [Example E104, 7-((2,3-difluorobenzyl)oxy)-1-trideuteromethyl-2,2-dimethyl-2,3-dihydroimidazo[1,2-c]pyrimidin-5(1H)-one]
17 | ≤ 10 nM | ≤ 100 nM | – | [2H]C1([2H])n2c(cc(OCc3cc(F)cc(F)c3)nc2=O)N(C)C1(C)C [Example E137, 7-((3,5-difluorobenzyl)oxy)-1,2,2-trimethyl-3,3-dideutero-2,3-dihydroimidazo[1,2-c]pyrimidin-5(1H)-one]
18 | ≤ 1 nM | ≤ 100 nM | – | CN1c2cc(OCc3cccc(C#N)c3)nc(=O)n2CC1(C)C [Example E124, 3-(((1,2,2-trimethyl-5-oxo-1,2,3,5-tetrahydroimidazo[1,2-c]pyrimidin-7-yl)oxy)methyl)benzonitrile]
19 | ≤ 1 nM | ≤ 100 nM | 0.631 nM | [2H]C([2H])(Oc1cc2n(c(=O)n1)CC(C)(C)N2C(C)C)c1cc(F)cc(F)c1 [Example E97, 7-(dideutero(3,5-difluorobenzyl)oxy)-1-isopropyl-2,2-dimethyl-2,3-dihydroimidazo[1,2-c]pyrimidin-5(1H)-one]
20 | ≤ 1 nM | ≤ 100 nM | – | CN1c2cc(OCc3ccc(Oc4ccc(F)nc4)c(F)c3)nc(=O)n2CC1(C)C [Example E98, 7-((3-fluoro-4-((6-fluoropyridin-3-yl)oxy)benzyl)oxy)-1,2,2-trimethyl-2,3-dihydroimidazo[1,2-c]pyrimidin-5(1H)-one]

Reference: patent publication US9051325B2, “Bicyclic [5,6] imidazo pyrimodone compounds for use in the treatment of diseases or conditions mediated by Lp-PLA2” (GlaxoSmithKline Intellectual Property Development Limited, priority 2013, dated 2015)
